According to the NIST ThermoML archive (doi:10.1021/acs.jced.8b00163):
Where “and” joins values, the source holds several entries; their conditions need not be identical. Equal values may be shown once. ± gives the expanded uncertainty stated by the source.

Conditions: for mass density: 100 kPa, Vibrating tube method; for mass density / viscosity: Liquid; for surface tension liquid-gas / viscosity: Surface laser light scattering (SLLS)

SMILES | mass density (283.15 K) [kg/m3] | mass density (288.15 K) [kg/m3] | mass density (293.15 K) [kg/m3] | surface tension liquid-gas (298.15 K) [mN/m] | mass density (298.15 K) | viscosity (298.15 K) [mPa·s] | mass density (303.15 K) [kg/m3] | mass density (308.15 K) [kg/m3] | mass density (313.15 K) [kg/m3] | mass density (318.15 K) [kg/m3] | surface tension liquid-gas (323.15 K) [mN/m] | mass density (323.15 K) | viscosity (323.15 K) [mPa·s] | mass density (328.15 K) [kg/m3] | mass density (333.15 K) [kg/m3] | mass density (338.15 K) [kg/m3] | mass density (343.15 K) [kg/m3] | surface tension liquid-gas (348.15 K) [mN/m] | mass density (348.15 K) | viscosity (348.15 K) [mPa·s] | further results
CCCCCCCC(C)C [2-methylnonane] | 735.134 ± 0.9 | 731.326 ± 0.9 | 727.469 ± 0.89 | 21.45 ± 0.3 | 723.54 ± 2.2 kg/m3 and 723.632 ± 0.89 kg/m3 | 0.8268 ± 0.028 | 719.96 ± 0.88 | 716.109 ± 0.88 | 712.275 ± 0.87 | 708.49 ± 0.87 | 19.65 ± 0.21 | 704.14 ± 2.2 kg/m3 and 704.628 ± 0.86 kg/m3 | 0.6035 ± 0.023 | 700.722 ± 0.86 | 696.794 ± 0.85 | 692.852 ± 0.85 | 688.883 ± 0.84 | 17.76 ± 0.19 | 684.896 ± 0.84 kg/m3 and 684.45 ± 2.1 kg/m3 | 0.4629 ± 0.019 | mass density (353.15 K): 680.89 ± 0.83 kg/m3; mass density (358.15 K): 676.827 ± 0.83 kg/m3; mass density (363.15 K): 672.811 ± 0.83 kg/m3; surface tension liquid-gas (373.15 K): 15.75 ± 0.19 mN/m; mass density (373.15 K): 664.34 ± 2 kg/m3; viscosity (373.15 K): 0.3623 ± 0.017 mPa·s; surface tension liquid-gas (398.15 K): 13.64 ± 0.19 mN/m; mass density (398.15 K): 643.46 ± 2 kg/m3; viscosity (398.15 K): 0.2897 ± 0.015 mPa·s; surface tension liquid-gas (423.15 K): 11.72 ± 0.21 mN/m; mass density (423.15 K): 621.59 ± 1.9 kg/m3; viscosity (423.15 K): 0.2365 ± 0.013 mPa·s; surface tension liquid-gas (448.15 K): 9.9 ± 0.17 mN/m; viscosity (448.15 K): 0.1989 ± 0.013 mPa·s
CCCCCC(C)CCC (stereo not drawn) [4-methylnonane] | 739.362 ± 0.91 | 735.555 ± 0.9 | 731.743 ± 0.9 | 21.67 ± 0.28 | 728.35 ± 2.2 kg/m3 and 727.929 ± 0.89 kg/m3 | 0.7638 ± 0.027 | 724.098 ± 0.89 | 720.253 ± 0.88 | 716.396 ± 0.88 | 712.527 ± 0.87 | 20.06 ± 0.26 | 708.82 ± 2.2 kg/m3 and 708.634 ± 0.87 kg/m3 | 0.5533 ± 0.021 | 704.729 ± 0.86 | 700.808 ± 0.86 | 696.873 ± 0.85 | 692.918 ± 0.85 | 17.93 ± 0.19 | 688.94 ± 0.84 kg/m3 and 689 ± 2.1 kg/m3 | 0.4161 ± 0.018 | mass density (353.15 K): 684.943 ± 0.84 kg/m3; mass density (358.15 K): 680.922 ± 0.83 kg/m3; mass density (363.15 K): 676.877 ± 0.83 kg/m3; surface tension liquid-gas (373.15 K): 15.92 ± 0.2 mN/m; mass density (373.15 K): 668.81 ± 2.1 kg/m3; viscosity (373.15 K): 0.3279 ± 0.016 mPa·s; surface tension liquid-gas (398.15 K): 13.77 ± 0.27 mN/m; mass density (398.15 K): 647.86 ± 2 kg/m3; viscosity (398.15 K): 0.2644 ± 0.014 mPa·s; surface tension liquid-gas (423.15 K): 11.89 ± 0.13 mN/m; mass density (423.15 K): 626 ± 1.9 kg/m3; viscosity (423.15 K): 0.2168 ± 0.013 mPa·s; surface tension liquid-gas (448.15 K): 9.95 ± 0.14 mN/m; viscosity (448.15 K): 0.1801 ± 0.012 mPa·s
